Data from PubChem BioAssay (NCI).
Values joined by “and” are separate entries in the source; they are usually repeats but may differ in a detail not shown here. Equal values may be shown once.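 How tested: cells in 96-well plates exposed to compound for 48 hours at five concentrations. Abbreviation: GI50, concentration required for 50% inhibition of growth. Definition used: TGI = concentration required for complete inhibition of growth.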

Legend:
Test in all cases: NCI-60 cell line screen, 48 h
SW-620 colon = system: SW-620 colon
EKVX NSCLC = system: EKVX NSCLC
MALME-3M melanoma = system: MALME-3M melanoma
COLO 205 colon = system: COLO 205 colon
U251 CNS = system: U251 CNS
IGROV1 ovarian = system: IGROV1 ovarian
SN12C renal = system: SN12C renal
HT29 colon = system: HT29 colon
K-562 leukemia = system: K-562 leukemia
PC-3 prostate = system: PC-3 prostate

## CCN1c2ccccc2C(C(SC)S(=O)(=O)c2ccc(C)cc2)c2c1[nH]c(=O)n(C)c2=O (stereo not drawn)
SW-620 colon
  TGI: > 100 µM
EKVX NSCLC
  TGI: > 100 µM
MALME-3M melanoma
  TGI: > 100 µM
COLO 205 colon
  TGI: > 100 µM
U251 CNS
  TGI: > 100 µM
IGROV1 ovarian
  TGI: > 100 µM
SN12C renal
  TGI: > 100 µM
HT29 colon
  TGI: > 100 µM
K-562 leukemia
  TGI: > 100 µM

## CCOC(=O)CC(=O)ON(C)C(C)=O
SW-620 colon
  TGI: > 100 µM
EKVX NSCLC
  TGI: > 100 µM
MALME-3M melanoma
  TGI: > 100 µM
COLO 205 colon
  TGI: > 100 µM
U251 CNS
  TGI: > 100 µM
IGROV1 ovarian
  TGI: > 100 µM
SN12C renal
  TGI: > 100 µM
HT29 colon
  TGI: > 100 µM
K-562 leukemia
  TGI: > 100 µM

## CC(C)OP(=O)(OC(C)C)C(=NCCN=C(NNc1ccc([N+](=O)[O-])cc1)P(=O)(OC(C)C)OC(C)C)NNc1ccc([N+](=O)[O-])cc1
SW-620 colon
  TGI: > 100 µM
EKVX NSCLC
  TGI: > 100 µM
MALME-3M melanoma
  TGI: > 100 µM
COLO 205 colon
  TGI: 29.6 µM
U251 CNS
  TGI: 91.2 µM
IGROV1 ovarian
  TGI: 16.7 µM
SN12C renal
  TGI: > 100 µM
K-562 leukemia
  TGI: > 100 µM

## O=C(/C=C\c1ccc(Cl)c(Cl)c1)c1ccc(Cl)cc1Cl
SW-620 colon
  TGI: 8.47 µM and 18.9 µM
EKVX NSCLC
  TGI: 56.2 µM
MALME-3M melanoma
  TGI: 35.5 µM
U251 CNS
  TGI: 40.6 µM
IGROV1 ovarian
  TGI: 49.8 µM
SN12C renal
  TGI: > 100 µM
HT29 colon
  TGI: 34.2 µM
K-562 leukemia
  GI50: 1.61 µM
  TGI: 26 µM

## CC(=O)OC1COC(n2ccc3cc(Br)c([N+](=O)[O-])cc32)C(OC(C)=O)C1OC(C)=O (stereo not drawn)
SW-620 colon
  TGI: > 100 µM
EKVX NSCLC
  TGI: > 100 µM
MALME-3M melanoma
  TGI: 72.5 µM
COLO 205 colon
  TGI: 50 µM
U251 CNS
  TGI: 56 µM
IGROV1 ovarian
  TGI: > 100 µM
SN12C renal
  TGI: > 100 µM
HT29 colon
  TGI: > 100 µM
K-562 leukemia
  TGI: > 100 µM

## CN(C)c1ccc(/C=C(\NC(=O)c2ccccc2)c2nc3ncncc3[nH]2)cc1
SW-620 colon
  TGI: > 100 µM
EKVX NSCLC
  TGI: > 100 µM
MALME-3M melanoma
  TGI: > 100 µM
COLO 205 colon
  TGI: > 100 µM
U251 CNS
  TGI: > 100 µM
IGROV1 ovarian
  TGI: > 100 µM
SN12C renal
  TGI: > 100 µM
HT29 colon
  TGI: > 100 µM
K-562 leukemia
  TGI: > 100 µM

## C#CC1(O)CCC2C3CCc4cc(Oc5nc(F)nc(-c6c7ccccc7c7sc8ccccc8n67)n5)ccc4C3CC[C@@]21C (stereo partly drawn)
SW-620 colon
  TGI: > 100 µM
MALME-3M melanoma
  TGI: > 100 µM
COLO 205 colon
  TGI: > 100 µM
U251 CNS
  TGI: > 100 µM
IGROV1 ovarian
  TGI: > 100 µM
HT29 colon
  TGI: > 100 µM
K-562 leukemia
  TGI: > 100 µM

## CSc1nc(NC2OCC(OC(C)=O)C(OC(C)=O)C2OC(C)=O)c(N=CC=Nc2c(NC3OCC(OC(C)=O)C(OC(C)=O)C3OC(C)=O)nc(SC)[nH]c2=O)c(=O)[nH]1 (stereo not drawn)
SW-620 colon
  TGI: > 100 µM
EKVX NSCLC
  TGI: > 100 µM
MALME-3M melanoma
  TGI: > 100 µM
COLO 205 colon
  TGI: > 100 µM
U251 CNS
  TGI: > 100 µM
IGROV1 ovarian
  TGI: > 100 µM
SN12C renal
  TGI: > 100 µM
HT29 colon
  TGI: > 100 µM
K-562 leukemia
  TGI: > 100 µM

## CCc1cc(Cc2cc(CC)c(NC(=O)C(=O)Cc3ccccn3)c(CC)c2Cl)c(Cl)c(CC)c1NC(=O)C(=O)Cc1ccccn1
SW-620 colon
  TGI: 31.9 µM
EKVX NSCLC
  TGI: > 100 µM
MALME-3M melanoma
  TGI: > 100 µM
COLO 205 colon
  TGI: > 100 µM
U251 CNS
  TGI: 46.1 µM
IGROV1 ovarian
  TGI: > 100 µM
SN12C renal
  TGI: > 100 µM
HT29 colon
  TGI: > 100 µM
K-562 leukemia
  TGI: > 100 µM

## Cc1cccc(NC(=O)Cn2cnc3sc(C(=O)OC(C)C)c(C)c3c2=O)c1
SW-620 colon
  GI50: 33.5 µM
  TGI: > 50 µM
EKVX NSCLC
  GI50: 7.51 µM
  TGI: 22.4 µM
COLO 205 colon
  GI50: > 50 µM
  TGI: > 50 µM
U251 CNS
  GI50: 12.6 µM
  TGI: 31 µM
IGROV1 ovarian
  GI50: 16.3 µM
  TGI: > 50 µM
SN12C renal
  GI50: 7.66 µM
  TGI: 22.3 µM
PC-3 prostate
  GI50: > 50 µM
  TGI: > 50 µM
K-562 leukemia
  GI50: > 50 µM
  TGI: > 50 µM

## c1ccc(COc2cccc3ccc[n+](Cc4ccccc4)c23)cc1
SW-620 colon
  TGI: > 100 µM
EKVX NSCLC
  TGI: > 100 µM
MALME-3M melanoma
  TGI: 19.9 µM
COLO 205 colon
  TGI: 23.9 µM
U251 CNS
  TGI: > 100 µM
IGROV1 ovarian
  TGI: 25.7 µM
HT29 colon
  TGI: > 100 µM
K-562 leukemia
  TGI: > 100 µM

## COc1ccc([C@H]2[C@@H](F)C(=O)N2c2cc(OC)c(OC)c(OC)c2)cc1F
SW-620 colon
  GI50: 0.0562 µM
  TGI: > 100 µM
EKVX NSCLC
  GI50: 0.202 µM
  TGI: > 100 µM
COLO 205 colon
  GI50: 0.156 µM
  TGI: 0.503 µM
U251 CNS
  GI50: 0.236 µM
  TGI: > 100 µM
IGROV1 ovarian
  GI50: 0.0946 µM
  TGI: > 100 µM
SN12C renal
  GI50: 0.482 µM
  TGI: > 100 µM
HT29 colon
  GI50: 0.134 µM
  TGI: > 100 µM
PC-3 prostate
  GI50: 0.042 µM
  TGI: > 100 µM
K-562 leukemia
  GI50: 0.0383 µM
  TGI: > 100 µM

## COC(OC)C(C)CC(=O)N(C)C (stereo not drawn)
SW-620 colon
  TGI: > 100 µM
EKVX NSCLC
  TGI: > 100 µM
COLO 205 colon
  TGI: > 100 µM
U251 CNS
  TGI: > 100 µM
IGROV1 ovarian
  TGI: > 100 µM
SN12C renal
  TGI: > 100 µM
HT29 colon
  TGI: > 100 µM
K-562 leukemia
  TGI: > 100 µM

## Cc1cc(/C=C/c2ccc3cc(N(C)C)ccc3[n+]2C)c(C)n1-c1ccccc1
SW-620 colon
  GI50: 0.174 µM
  TGI: 7.79 µM
EKVX NSCLC
  GI50: 0.102 µM
  TGI: 3.9 µM
MALME-3M melanoma
  GI50: 0.42 µM
  TGI: 1.46 µM
COLO 205 colon
  GI50: 0.103 µM
  TGI: 0.213 µM
U251 CNS
  GI50: 0.129 µM
  TGI: 1.16 µM
IGROV1 ovarian
  GI50: 0.3 µM
  TGI: 3.92 µM
SN12C renal
  GI50: 0.159 µM
  TGI: 0.636 µM
HT29 colon
  GI50: 0.133 µM
  TGI: 2.52 µM
PC-3 prostate
  GI50: 0.13 µM
  TGI: 0.765 µM

## CCOC(=O)C(=C=C=C(c1ccccc1)c1ccccc1)C(=O)OCC
SW-620 colon
  TGI: 51.2 µM
EKVX NSCLC
  TGI: 82.8 µM
MALME-3M melanoma
  TGI: 40.2 µM
COLO 205 colon
  TGI: 32.5 µM
U251 CNS
  TGI: 33.2 µM
IGROV1 ovarian
  TGI: 37.9 µM
SN12C renal
  TGI: 42.4 µM
HT29 colon
  TGI: 41.7 µM
K-562 leukemia
  TGI: 28.5 µM

## O=C(Nc1ccc(Cl)cc1)c1cccc(NC2=C(Cl)C(=O)N(Cc3ccccc3)C2=O)c1
SW-620 colon
  GI50: 16.3 µM
  TGI: 43.6 µM
EKVX NSCLC
  GI50: 27.3 µM
  TGI: > 100 µM
COLO 205 colon
  GI50: 21.7 µM
  TGI: > 100 µM
U251 CNS
  GI50: 9.92 µM
  TGI: 21.5 µM
IGROV1 ovarian
  GI50: 2.61 µM
  TGI: 18.1 µM
SN12C renal
  GI50: 7.79 µM
  TGI: 24.2 µM
HT29 colon
  GI50: 32.4 µM
  TGI: > 100 µM
PC-3 prostate
  GI50: 9.12 µM
  TGI: 21.2 µM
K-562 leukemia
  GI50: 5.83 µM
  TGI: 28.3 µM

## Cc1ccc(NC(=O)c2cc3cc(N=Nc4ccccc4C(=O)O)ccc3oc2=O)cc1
SW-620 colon
  TGI: > 100 µM
EKVX NSCLC
  TGI: > 100 µM
MALME-3M melanoma
  TGI: > 100 µM
COLO 205 colon
  TGI: > 100 µM
U251 CNS
  TGI: > 100 µM
IGROV1 ovarian
  TGI: > 100 µM
SN12C renal
  TGI: > 100 µM
HT29 colon
  TGI: > 100 µM
K-562 leukemia
  TGI: > 100 µM

## OCC#Cc1ccccc1C#Cc1ccccc1
SW-620 colon
  GI50: 20 µM
  TGI: 43.6 µM
EKVX NSCLC
  GI50: 17.6 µM
  TGI: 34 µM
COLO 205 colon
  GI50: 19.6 µM
  TGI: 37.6 µM
U251 CNS
  GI50: 11.7 µM
  TGI: 25.2 µM
IGROV1 ovarian
  GI50: 30.3 µM
  TGI: > 100 µM
SN12C renal
  GI50: 8.79 µM
  TGI: 21.3 µM
HT29 colon
  GI50: 23.6 µM
  TGI: 97.6 µM
PC-3 prostate
  GI50: 11.5 µM
  TGI: 24.1 µM
K-562 leukemia
  GI50: 26 µM
  TGI: > 100 µM

## Cn1cnc([N+](=O)[O-])c1Sc1nc2ccccc2[nH]1
EKVX NSCLC
  TGI: 36.9 µM
MALME-3M melanoma
  TGI: 35 µM
COLO 205 colon
  TGI: 23.1 µM
U251 CNS
  TGI: 74.5 µM
IGROV1 ovarian
  TGI: 54.4 µM
SN12C renal
  TGI: 30.2 µM
HT29 colon
  TGI: > 100 µM
K-562 leukemia
  TGI: > 100 µM
